Measurements from US8952180B2, “Pyrrolinone carboxamide compounds useful as endothelial lipase inhibitors” (Bristol-Myers Squibb Company, priority 2011, dated 2015).

Target: T1, endothelial lipase (EL) (Homo sapiens, UniProt Q9Y5X9)
T1 construct: HT-1080 cells, which were transformed by RAGE technology (Athersys) to overexpress endogenous EL; endogenous in cells; conditioned medium used as the enzyme source
T1 sequence (Q9Y5X9 21-500): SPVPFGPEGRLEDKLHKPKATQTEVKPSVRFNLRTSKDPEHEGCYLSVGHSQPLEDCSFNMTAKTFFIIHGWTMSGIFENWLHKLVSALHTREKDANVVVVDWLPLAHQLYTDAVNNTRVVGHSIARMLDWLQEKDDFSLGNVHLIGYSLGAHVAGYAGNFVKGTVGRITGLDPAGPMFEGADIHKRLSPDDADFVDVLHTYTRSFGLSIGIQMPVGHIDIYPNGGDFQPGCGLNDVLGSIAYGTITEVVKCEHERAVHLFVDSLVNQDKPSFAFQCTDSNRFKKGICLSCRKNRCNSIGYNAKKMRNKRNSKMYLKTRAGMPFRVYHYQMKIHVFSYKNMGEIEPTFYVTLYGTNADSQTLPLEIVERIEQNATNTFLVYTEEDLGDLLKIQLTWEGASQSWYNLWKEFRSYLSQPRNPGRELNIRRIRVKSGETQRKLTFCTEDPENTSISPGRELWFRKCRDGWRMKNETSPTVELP
Assay: Endothelial lipase (EL) enzymatic assay with fluorescent substrate A10070 in DMPG vesicles
Assay type: biochemical
Settings: conditioned media from HT-1080 cells overexpressing endogenous EL; 20 min preincubation at 37° C.; read-out: HLE_EL_CRC IC50
Description: Endothelial lipase activity was measured using a fluorescent substrate, A10070, (Invitrogen, CA) doped into an artificial vesicle containing DMPG (Avanti Polar Lipids) as the excipient. Vesicles were prepared by combining 285 uL of 1 mM DMPG in a 1:1 mixture of MeOH and CHCl3 with 15 uL of 1 mM A10070 in a 1:1 mixture of MeOH and CHCl3. The mixture was dried under nitrogen and resuspended in 150 uL of 50 mM HEPES pH 8.0 buffer containing 100 mM NaCl and 0.2 mM EDTA. The sample was allowed to sit at rt for 15 min and then was sonicated 3×4 mins on ice with a Branson Sonicator using duty cycle 1. This preparation provides vesicles with a mole fraction of 0.05 for the FRET substrate.
The enzymatic assay was measured using white, opaque 96-well half area plates. Each well contained 60 uL of assay buffer (50 mM HEPES pH 8.0, 50 mM NaCl and 1 mM CaCl2) and 2 ul of a DMSO solution containing compound of interest. Conditioned media obtained from HT-1080 cells, which were transformed by RAGE technology (Athersys) to overexpress endogenous EL, was added and the reaction was allowed to incubate for 20 min at 37° C. with gentle agitation. The reaction was started by the addition of 20 uL of a 1:4 dilution of vesicles. The final total reaction volume was 100 uL. The reaction rates were measured on a Gemini plate reader with an excitation wavelength of 488 nm and a emission of 530 nm. Readings were taken every 20 seconds for 10 min with agitation between each reading. The slope of the linear portion of the readout was used to calculate the rate of the reaction.

SMILES | IC50 [nM]
Cc1nc2cc(C#CCNC(=O)C3=C(O)C(=O)N(C)C3)ccc2s1 [Example 247, 4-hydroxy-1-methyl-N-(3-(2-methylbenzo[d]thiazol-5-yl)prop-2-ynyl)-5-oxo-2,5-dihydro-1H-pyrrole-3-carboxamide] | 8380
CC(CCc1ccc(Cl)c(Cl)c1)NC(=O)C1=C(O)C(=O)N(Cc2c[nH]nn2)C1 (centres unmarked) [Example 272, 1-((1H-1,2,3-triazol-4-yl)methyl)-N-(4-(3,4-dichlorophenyl)butan-2-yl)-4-hydroxy-5-oxo-2,5-dihydro-1H-pyrrole-3-carboxamide] | 3440
O=C(NCCCOc1ccccc1)C1=C(O)C(=O)N(CC(F)(F)F)C1 [Example 299, 4-hydroxy-5-oxo-N-(3-phenoxypropyl)-1-(2,2,2-trifluoroethyl)-2,5-dihydro-1H-pyrrole-3-carboxamide] | 2740
CN1CC(C(=O)NC(CCc2ccc(Cl)c(Cl)c2)C2CC2)=C(O)C1=O (centres unmarked) [Example 233, N-(1-cyclopropyl-3-(3,4-dichlorophenyl)propyl)-4-hydroxy-1-methyl-5-oxo-2,5-dihydro-1H-pyrrole-3-carboxamide] | 6280
CC(CCc1ccc(Cl)c(Cl)c1)NC(=O)C1=C(O)C(=O)N(CCNC(=O)c2cc(F)cc(C(F)(F)F)c2)C1 (centres unmarked) [Example 273, N-(4-(3,4-dichlorophenyl)butan-2-yl)-1-(2-(3-fluoro-5-(trifluoromethyl)benzamido)ethyl)-4-hydroxy-5-oxo-2,5-dihydro-1H-pyrrole-3-carboxamide] | 2680
CCN1CC(C(=O)NC[C@H]2CCc3ccccc3O2)=C(O)C1=O [Example 297, (R)-N-(chroman-2-ylmethyl)-1-ethyl-4-hydroxy-5-oxo-2,5-dihydro-1H-pyrrole-3-carboxamide] | 6520
Cc1ccc(C#CCNC(=O)C2=C(O)C(=O)N(C)C2)cc1C(F)(F)F [Example 248, 4-hydroxy-1-methyl-N-(3-(4-methyl-3-(trifluoromethyl)phenyl)prop-2-ynyl)-5-oxo-2,5-dihydro-1H-pyrrole-3-carboxamide] | 4660
CCN1CC(C(=O)NCCCN(C)c2ccccc2)=C(O)C1=O [Example 182, 1-ethyl-4-hydroxy-N-(3-(methyl(phenyl)amino)propyl)-5-oxo-2,5-dihydro-1H-pyrrole-3-carboxamide] | 3650
CC(CCc1ccc(Cl)c(Cl)c1)NC(=O)C1=C(O)C(=O)N(CCC(=O)O)C1 (centres unmarked) [Example 344, 3-(4-(4-(3,4-dichlorophenyl)butan-2-ylcarbamoyl)-3-hydroxy-2-oxo-2,5-dihydro-1H-pyrrol-1-yl) propanoic acid] | 575
CCN1CC(C(=O)NCCc2ccc(S(N)(=O)=O)cc2)=C(O)C1=O [Example 181, 1-ethyl-4-hydroxy-5-oxo-N-(4-sulfamoylphenethyl)-2,5-dihydro-1H-pyrrole-3-carboxamide] | 581
C[C@@H](NC(=O)C1=C(O)C(=O)N(CC(F)(F)F)C1)c1ccc2ccccc2c1 [Example 300, (R)-4-hydroxy-N-(1-(naphthalen-2-yl)ethyl)-5-oxo-1-(2,2,2-trifluoroethyl)-2,5-dihydro-1H-pyrrole-3-carboxamide] | 3810
CC(=O)N(C)CCN1CC(C(=O)NC(C)CCc2ccc(Cl)c(Cl)c2)=C(O)C1=O (centres unmarked) [Example 280, N-(4-(3,4-dichlorophenyl)butan-2-yl)-4-hydroxy-1-(2-(N-methylacetamido)ethyl)-5-oxo-2,5-dihydro-1H-pyrrole-3-carboxamide] | 7300
CN1CC(C(=O)NC(CCc2ccc(Cl)c(Cl)c2)C2CC2)=C(O)C1=O (centres unmarked) [Example 232, N-(1-cyclopropyl-3-(3,4-dichlorophenyl)propyl)-4-hydroxy-1-methyl-5-oxo-2,5-dihydro-1H-pyrrole-3-carboxamide] | 5460

Stronger by IC50, values ahead:

IC50 [nM] | SMILES
5.44 | O=C(NCCCc1ccc(Cl)c(Cl)c1)C1=C(O)C(=O)N(CCOc2ccccc2)C1 [Example 61, N-(3-(3,4-dichlorophenyl)propyl)-4-hydroxy-5-oxo-1-(2-phenoxyethyl)-2,5-dihydro-1H-pyrrole-3-carboxamide]
493 | C=CC(CCc1ccc(Cl)c(Cl)c1)NC(=O)C1=C(O)C(=O)N(C)C1 (centres unmarked) [Example 236, N-(5-(3,4-dichlorophenyl)pent-1-en-3-yl)-4-hydroxy-1-methyl-5-oxo-2,5-dihydro-1H-pyrrole-3-carboxamide]
500 | CC(CCc1ccc(Cl)c(Cl)c1)NC(=O)C1=C(O)C(=O)N([C@H]2CCc3ccc(C(F)(F)F)cc32)C1 (stereo partly drawn) [Example 347, N-(4-(3,4-dichlorophenyl)butan-2-yl)-4-hydroxy-5-oxo-1-((S)-6-(trifluoromethyl)-2,3-dihydro-1H-inden-1-yl)-2,5-dihydro-1H-pyrrole-3-carboxamide]
526 | CCOC(=O)[C@H](Cc1ccccc1)N1CC(C(=O)NCCCc2ccc(Cl)c(Cl)c2)=C(O)C1=O [Example 138, (S)-ethyl 2-(4-(3-(3,4-dichlorophenyl)propylcarbamoyl)-3-hydroxy-2-oxo-2,5-dihydro-1H-pyrrol-1-yl)-3-phenylpropanoate]
546 | CCN1CC(C(=O)NCCCc2ccc(Cl)c(Cl)c2)=C(NCCCc2ccc(Cl)c(Cl)c2)C1=O [Example 179, N-(3-(3,4-dichlorophenyl)propyl)-4-(3-(3,4-dichlorophenyl)-propylamino)-1-ethyl-5-oxo-2,5-dihydro-1H-pyrrole-3-carboxamide]
466 | CC1C(C(=O)NCCCc2ccc(Cl)c(Cl)c2)=C(O)C(=O)N1CCOc1ccccc1 (centres unmarked) [Example 194, N-(3-(3,4-dichlorophenyl)propyl)-4-hydroxy-2-methyl-5-oxo-1-(2-phenoxyethyl)-2,5-dihydro-1H-pyrrole-3-carboxamide]
5.73 | O=C(NCCCc1ccc(Cl)c(Cl)c1)C1=C(O)C(=O)N(CC2CCCCC2)C1 [Example 48, 1-(cyclohexylmethyl)-N-(3-(3,4-dichlorophenyl)propyl)-4-hydroxy-5-oxo-2,5-dihydro-1H-pyrrole-3-carboxamide]
